{
  "source": "patent US12516095B2",
  "about": "“Peptide hormone analogues” (IP2IPO INNOVATIONS LIMITED, priority 2019, dated 2026)",
  "note": "Starred links: 1 amine or outer side, 2 acyl side, 3 side chain; linkers in the order of their positions; H or OH if unused. Non-standard residues stand in square brackets, D forms with d. Residues, ends and D or L forms follow the SMILES beside them. Groups on a side chain read outwards from the residue. *: point of attachment. C20 diacid = O=C(O)CCCCCCCCCCCCCCCCCCC(=O)*; C18 diacid = O=C(O)CCCCCCCCCCCCCCCCC(=O)*; γGlu = O=C(O)[C@H](CCC(=O)[*:2])N[*:1]; Aib = CC(C)(N)C(=O)O",
  "data": [
    {"assay": "PK measurements for half life assessment in pigs", "assay_type": "in vivo, pig", "conditions": "male, large white, pig, plasma, sc, single subcutaneous injection, time from tmax to half of Cmax, typically mean of four animals", "method": "Male large white pigs receive a single subcutaneous injection of the test compound at the start of study (0 hours). Repeated blood samples were taken from the pig over the proceeding 168 hours and plasma separated and stored at −20 to −80° C. Plasma concentration of the test compound was quantified using a radioimmunoassay or mass spectrum analysis. Time taken from tmax to half of Cmax was calculated and represents the half-life (t½) of the compound. Typically, the presented t½ is the mean of four separate animals.", "units": {"half-life": "h"}, "values": [
      {"smiles": "CC[C@H](C)[C@H](NC(=O)[C@H](Cc1ccccc1)NC(=O)[C@H](CCC(=O)O)NC(=O)[C@H](Cc1c[nH]cn1)NC(=O)[C@H](C)NC(=O)[C@H](CCCNC(=N)N)NC(=O)[C@H](CCCCN)NC(=O)[C@H](C)NC(=O)[C@H](CC(=O)O)NC(=O)[C@H](CC(C)C)NC(=O)[C@H](Cc1ccc(O)cc1)NC(=O)[C@H](CCCCN)NC(=O)[C@H](CO)NC(=O)[C@H](Cc1ccc(O)cc1)NC(=O)[C@H](CC(=O)O)NC(=O)[C@H](CO)NC(=O)[C@@H](NC(=O)[C@H](Cc1ccccc1)NC(=O)[C@@H](NC(=O)CNC(=O)[C@H](Cc1c[nH]cn1)NC(=O)C(C)(C)NC(=O)[C@@H](N)Cc1c[nH]cn1)[C@@H](C)O)[C@@H](C)O)C(=O)N[C@@H](CCC(=O)O)C(=O)N[C@@H](Cc1c[nH]c2ccccc12)C(=O)N[C@@H](CC(C)C)C(=O)N[C@@H](CC(C)C)C(=O)N[C@@H](CCC(N)=O)C(=O)N[C@@H](CO)C(=O)N[C@@H](Cc1c[nH]cn1)C(=O)N[C@@H](CCC(N)=O)C(=O)N[C@@H](CCC(N)=O)C(=O)N[C@@H](Cc1c[nH]cn1)C(=O)N[C@@H](CO)C(=O)N1CCC[C@H]1C(=O)N1CCC[C@H]1C(=O)N1CCC[C@H]1C(=O)N[C@@H](CCCCNC(=O)[C@H](CO)NC(=O)CNC(=O)CC[C@H](NC(=O)CCCCCCCCCCCCCCCCC(=O)O)C(=O)O)C(=O)O", "note": "[Example 507] (H-H[Aib]HGTFTSDYSKYLDAKRAHEFIEWLLQSHQQHSPPPK([Ser-Gly-γGlu-C18 diacid])-OH)", "half-life": 112},
      {"smiles": "CC[C@H](C)[C@H](NC(=O)[C@H](Cc1ccccc1)NC(=O)[C@H](CCC(=O)O)NC(=O)[C@H](CCC(N)=O)NC(=O)[C@H](C)NC(=O)[C@H](CCCNC(=N)N)NC(=O)[C@H](CCCCN)NC(=O)[C@H](C)NC(=O)[C@H](CC(=O)O)NC(=O)[C@H](CC(C)C)NC(=O)[C@H](Cc1ccc(O)cc1)NC(=O)[C@H](CCCCN)NC(=O)[C@H](CO)NC(=O)[C@H](Cc1ccc(O)cc1)NC(=O)[C@H](CC(=O)O)NC(=O)[C@H](CO)NC(=O)[C@@H](NC(=O)[C@H](Cc1ccccc1)NC(=O)[C@@H](NC(=O)CNC(=O)[C@H](Cc1c[nH]cn1)NC(=O)C(C)(C)NC(=O)[C@@H](N)Cc1c[nH]cn1)[C@@H](C)O)[C@@H](C)O)C(=O)N[C@@H](CCC(=O)O)C(=O)N[C@@H](Cc1c[nH]c2ccccc12)C(=O)N[C@@H](CC(C)C)C(=O)N[C@@H](CC(C)C)C(=O)N[C@@H](CCC(N)=O)C(=O)N[C@@H](CO)C(=O)N[C@@H](Cc1c[nH]cn1)C(=O)N[C@@H](CCC(N)=O)C(=O)N[C@@H](Cc1c[nH]cn1)C(=O)N1CCC[C@H]1C(=O)N[C@@H](CO)C(=O)N1CCC[C@H]1C(=O)N1CCC[C@H]1C(=O)N1CCC[C@H]1C(=O)N[C@@H](CCCCNC(=O)CC[C@H](NC(=O)CCCCCCCCCCCCCCCCCCC(=O)O)C(=O)O)C(=O)O", "note": "[Example 544] (H-H[Aib]HGTFTSDYSKYLDAKRAQEFIEWLLQSHQHPSPPPK([γGlu-C20 diacid])-OH)", "half-life": 83},
      {"smiles": "CC[C@H](C)[C@H](NC(=O)[C@H](Cc1ccccc1)NC(=O)[C@H](CCC(=O)O)NC(=O)[C@H](CCC(N)=O)NC(=O)[C@H](C)NC(=O)[C@H](CCCNC(=N)N)NC(=O)[C@H](CCCCN)NC(=O)[C@H](C)NC(=O)[C@H](CC(=O)O)NC(=O)[C@H](CC(C)C)NC(=O)[C@H](Cc1ccc(O)cc1)NC(=O)[C@H](CCCCN)NC(=O)[C@H](CO)NC(=O)[C@H](Cc1ccc(O)cc1)NC(=O)[C@H](CC(=O)O)NC(=O)[C@H](CO)NC(=O)[C@@H](NC(=O)[C@H](Cc1ccccc1)NC(=O)[C@@H](NC(=O)CNC(=O)[C@H](Cc1c[nH]cn1)NC(=O)C(C)(C)NC(=O)[C@@H](N)Cc1c[nH]cn1)[C@@H](C)O)[C@@H](C)O)C(=O)N[C@@H](CCC(=O)O)C(=O)N[C@@H](Cc1c[nH]c2ccccc12)C(=O)N[C@@H](CC(C)C)C(=O)N[C@@H](CC(C)C)C(=O)N[C@@H](CCC(N)=O)C(=O)N[C@@H](CO)C(=O)N[C@@H](Cc1c[nH]cn1)C(=O)N[C@@H](Cc1c[nH]cn1)C(=O)N[C@@H](CCC(N)=O)C(=O)N[C@@H](CCC(N)=O)C(=O)N[C@@H](Cc1c[nH]cn1)C(=O)N[C@@H](CCC(=O)O)C(=O)N[C@@H](CO)C(=O)N1CCC[C@H]1C(=O)N1CCC[C@H]1C(=O)N1CCC[C@H]1C(=O)N[C@@H](CCCCNC(=O)[C@H](CC(N)=O)NC(=O)CC[C@H](NC(=O)CCCCCCCCCCCCCCCCCCC(=O)O)C(=O)O)C(=O)O", "note": "[Example 549] (H-H[Aib]HGTFTSDYSKYLDAKRAQEFIEWLLQSHHQQHESPPPK([Asn-γGlu-C20 diacid])-OH)", "half-life": 110},
      {"smiles": "CC[C@H](C)[C@H](NC(=O)[C@H](Cc1ccccc1)NC(=O)[C@H](CCC(=O)O)NC(=O)[C@H](Cc1c[nH]cn1)NC(=O)[C@H](C)NC(=O)[C@H](CCCNC(=N)N)NC(=O)[C@H](CCCCN)NC(=O)[C@H](C)NC(=O)[C@H](CC(=O)O)NC(=O)[C@H](CC(C)C)NC(=O)[C@H](Cc1ccc(O)cc1)NC(=O)[C@H](CCCCN)NC(=O)[C@H](CO)NC(=O)[C@H](Cc1ccc(O)cc1)NC(=O)[C@H](CC(=O)O)NC(=O)[C@H](CO)NC(=O)[C@@H](NC(=O)[C@H](Cc1ccccc1)NC(=O)[C@@H](NC(=O)CNC(=O)[C@H](Cc1c[nH]cn1)NC(=O)C(C)(C)NC(=O)[C@@H](N)Cc1c[nH]cn1)[C@@H](C)O)[C@@H](C)O)C(=O)N[C@@H](CCC(=O)O)C(=O)N[C@@H](Cc1c[nH]c2ccccc12)C(=O)N[C@@H](CC(C)C)C(=O)N[C@@H](CC(C)C)C(=O)N[C@@H](CCC(N)=O)C(=O)N[C@@H](CO)C(=O)N[C@@H](Cc1c[nH]cn1)C(=O)N[C@@H](CCC(N)=O)C(=O)N[C@@H](CCC(N)=O)C(=O)N[C@@H](Cc1c[nH]cn1)C(=O)N[C@@H](CCC(=O)O)C(=O)N[C@@H](CO)C(=O)N1CCC[C@H]1C(=O)N1CCC[C@H]1C(=O)N1CCC[C@H]1C(=O)N[C@@H](CCCCNC(=O)[C@H](CO)NC(=O)CNC(=O)CC[C@H](NC(=O)CCCCCCCCCCCCCCCCC(=O)O)C(=O)O)C(=O)O", "note": "[Example 587] (H-H[Aib]HGTFTSDYSKYLDAKRAHEFIEWLLQSHQQHESPPPK([Ser-Gly-γGlu-C18 diacid])-OH)", "half-life": 84},
      {"smiles": "CC[C@H](C)[C@H](NC(=O)[C@H](Cc1ccccc1)NC(=O)[C@H](CCC(=O)O)NC(=O)[C@H](Cc1c[nH]cn1)NC(=O)[C@H](C)NC(=O)[C@H](CCCNC(=N)N)NC(=O)[C@H](CCCCN)NC(=O)[C@H](C)NC(=O)[C@H](CC(=O)O)NC(=O)[C@H](CC(C)C)NC(=O)[C@H](Cc1ccc(O)cc1)NC(=O)[C@H](CCCCN)NC(=O)[C@H](CO)NC(=O)[C@H](Cc1ccc(O)cc1)NC(=O)[C@H](CC(=O)O)NC(=O)[C@H](CO)NC(=O)[C@@H](NC(=O)[C@H](Cc1ccccc1)NC(=O)[C@@H](NC(=O)CNC(=O)[C@H](Cc1c[nH]cn1)NC(=O)C(C)(C)NC(=O)[C@@H](N)Cc1c[nH]cn1)[C@@H](C)O)[C@@H](C)O)C(=O)N[C@@H](CCC(=O)O)C(=O)N[C@@H](Cc1c[nH]c2ccccc12)C(=O)N[C@@H](CC(C)C)C(=O)N[C@@H](CC(C)C)C(=O)N[C@@H](CCC(N)=O)C(=O)N[C@@H](CO)C(=O)N[C@@H](Cc1c[nH]cn1)C(=O)N[C@@H](CCC(N)=O)C(=O)N[C@@H](CCC(N)=O)C(=O)N[C@@H](Cc1c[nH]cn1)C(=O)N[C@@H](CCC(=O)O)C(=O)N[C@@H](CO)C(=O)N1CCC[C@H]1C(=O)N1CCC[C@H]1C(=O)N1CCC[C@H]1C(=O)N[C@@H](CCCCNC(=O)CC[C@H](NC(=O)CCCCCCCCCCCCCCCCCCC(=O)O)C(=O)O)C(=O)O", "note": "[Example 588] (H-H[Aib]HGTFTSDYSKYLDAKRAHEFIEWLLQSHQQHESPPPK([γGlu-C20 diacid])-OH)", "half-life": 65},
      {"smiles": "CC[C@H](C)[C@H](NC(=O)[C@H](Cc1ccccc1)NC(=O)[C@H](CCC(=O)O)NC(=O)[C@H](CCC(N)=O)NC(=O)[C@H](C)NC(=O)[C@H](CCCNC(=N)N)NC(=O)[C@H](CCCCN)NC(=O)[C@H](C)NC(=O)[C@H](CC(=O)O)NC(=O)[C@H](CC(C)C)NC(=O)[C@H](Cc1ccc(O)cc1)NC(=O)[C@H](CCCCN)NC(=O)[C@H](CO)NC(=O)[C@H](Cc1ccc(O)cc1)NC(=O)[C@H](CC(=O)O)NC(=O)[C@H](CO)NC(=O)[C@@H](NC(=O)[C@H](Cc1ccccc1)NC(=O)[C@@H](NC(=O)CNC(=O)[C@H](Cc1c[nH]cn1)NC(=O)C(C)(C)NC(=O)[C@@H](N)Cc1c[nH]cn1)[C@@H](C)O)[C@@H](C)O)C(=O)N[C@@H](CCC(=O)O)C(=O)N[C@@H](Cc1c[nH]c2ccccc12)C(=O)N[C@@H](CC(C)C)C(=O)N[C@@H](CC(C)C)C(=O)N[C@@H](CCC(N)=O)C(=O)N[C@@H](CO)C(=O)N[C@@H](Cc1c[nH]cn1)C(=O)N[C@@H](Cc1c[nH]cn1)C(=O)N[C@@H](CCC(N)=O)C(=O)N[C@@H](CCC(N)=O)C(=O)N[C@@H](Cc1c[nH]cn1)C(=O)N[C@@H](CCC(=O)O)C(=O)N[C@@H](CO)C(=O)N1CCC[C@H]1C(=O)N1CCC[C@H]1C(=O)N1CCC[C@H]1C(=O)N[C@@H](CCCCNC(=O)[C@H](Cc1c[nH]cn1)NC(=O)[C@H](CC(N)=O)NC(=O)CC[C@H](NC(=O)CCCCCCCCCCCCCCCCC(=O)O)C(=O)O)C(=O)O", "note": "[Example 649] (H-H[Aib]HGTFTSDYSKYLDAKRAQEFIEWLLQSHHQQHESPPPK([His-Asn-γGlu-C18 diacid])-OH)", "half-life": 84}
    ]}
  ]
}
